pIC50: −log10 of the molar value. The source made the active and inactive calls. The rule behind the calls is not given here.

Among the data in ChEMBL document CHEMBL1148932, “Cyanopeptolin 963A, a chymotrypsin inhibitor of Microcystis PCC 7806” (J Nat Prod, 2004) are Activity and IC50 values, retold here.

The species entered for one experiment is Sus scrofa. As to the kind of experiment: Inhibition of trypsin in pig pancreas at 15 uM.
Experiment [1] can be described thus: Inhibition of alpha-chymotrypsin in bovine pancreas. Also noted: species or system Bos taurus.
The next experiment addresses Cathepsin B (Bos taurus) (UniProt P07688). As to the kind of experiment: Inhibition of cathepsin B in bovine spleen at 15 uM.

With `CCCCCC(=O)N[C@@H](CC(=O)O)C(=O)N[C@@H]1C(=O)N[C@@H](Cc2ccc(O)cc2)C(=O)N[C@H]2CC[C@@H](O)N(C2=O)[C@@H](CC(C)C)C(=O)N(C)[C@@H](Cc2ccccc2)C(=O)N[C@@H](C(C)C)C(=O)O[C@@H]1C` [CYANOPEPTOLIN 963A], the outcome in the experiment filed under Sus scrofa and on Cathepsin B (Bos taurus) was inactive. Also, in experiment [1], the pIC50 (commonly the IC50 on a negative log10 scale, so that one unit is a factor of ten) was 6.05.

For the compound `CC[C@H](C)[C@@H]1NC(=O)[C@H](Cc2ccc(O)cc2)N(C)C(=O)[C@H](Cc2ccccc2)N2C(=O)[C@H](CC[C@H]2O)NC(=O)[C@H](Cc2ccccc2)NC(=O)[C@@H](NC(=O)[C@@H](O)COP(=O)(O)O)[C@@H](C)OC1=O` [MICROPEPTIN T 20], the negative-log IC50 (pIC50) in experiment [1] is 8.60.
